In patent US6515140B2, “Fused pyrrolecarboxamides; a new class of GABA brain receptor ligands” (Neurogen Corporation, priority 1996, dated 2003):

Row | Structure (SMILES) | melting point
1 | CCOC(=O)COc1ccc(NC(=O)c2c[nH]c3c2C(=O)CCC3)cc1F [Compound 222, N-[3-Fluoro-4-(2-ethoxy-2-oxoethoxy)phenyl]-4-oxo-4,5,6,7-tetrahydro-1H-indole-3-carboxamide] | 192 to 196 °C
2 | CC1CC(=O)c2c(C(=O)Nc3ccc(CO)cc3)c[nH]c2C1 (stereo not drawn) [Compound 28, N-[4-(Hydroxymethyl)phenyl]-4-oxo-6-methyl-4,5,6,7-tetrahydro-1H-indole-3-carboxamide] | 260 to 262 °C
3 | CCN(CC)CCN(C)C(=O)COc1ccc(NC(=O)c2c[nH]c3c2C(=O)CCC3)cc1 | 220 to 228 °C
4 | CCN(CC)C(=O)COc1ccc(NC(=O)c2c[nH]c3c2C(=O)CCC3)cc1F [Compound 225, N-[3-Fluoro-4-(2-diethylamino-2-oxoethoxy)phenyl]-4-oxo-4,5,6,7-tetrahydro-1H-indole-3-carboxamide] | 193 to 196 °C
5 | O=C(Nc1ccc(OCCO)cc1)c1c[nH]c2c1C(=O)CCC2 [Compound 16, N-[4-(Hydroxyethoxy)phenyl]-4-oxo-4,5,6,7-tetrahydro-1H-indole-3-carboxamide] | 245 to 247 °C
6 | CN(C)Cc1ccc(NC(=O)c2c[nH]c3c2C(=O)CCC3)cc1 [Compound 23, N-[4-(Dimethylaminomethyl)phenyl]-4-oxo-4,5,6,7-tetrahydro-1H-indole-3-carboxamide] | 216 to 218 °C
7 | O=C(O)COc1ccc(NC(=O)c2c[nH]c3c2C(=O)CCC3)cc1F [Compound 223, N-[3-Fluoro-4-(2-hydroxy-2-oxoethoxy)phenyl]-4-oxo-4,5,6,7-tetrahydro-1H-indole-3-carboxamide] | 246 to 248 °C
8 | CCCNCCOc1ccc(NC(=O)c2c[nH]c3c2C(=O)CCC3)cc1F.Cl | 373 °C
9 | CC1(C)CC(=O)c2c(C(=O)Nc3ccc4c(c3)OCO4)c[nH]c2C1 [Compound 43, N-(1,3-Benzodioxol-5-yl)-4-oxo-6,6-dimethyl-4,5,6,7-tetrahydro-1H-indole-3-carboxamide] | 245 to 246 °C
10 | Cl.O=C(Nc1ccc(OCC2CCCNC2)cc1)c1c[nH]c2c1C(=O)CCC2 (stereo not drawn) | 196 to 199 °C
11 | CC(C)NCc1ccc(NC(=O)c2c[nH]c3c2C(=O)CCC3)cc1 [Compound 22, N-[4-(Isopropylaminomethyl)phenyl]-4-oxo-4,5,6,7-tetrahydro-1H-indole-3-carboxamide] | 164 to 166 °C
12 | CN(C)CCCOc1ccncc1NC(=O)c1c[nH]c2c1C(=O)CCC2 [Compound 123, N-[4-(3-Dimethylaminopropoxy)pyrid-3-yl]-4-oxo-4,5,6,7-tetrahydro-1H-indole-3-carboxamide] | 247 °C
13 | Cl.O=C(Nc1cnccc1OCc1ccncc1)c1c[nH]c2c1C(=O)CCCC2 | 235 to 240 °C (dec.)
14 | CC1(C)CC(=O)c2c(C(=O)Nc3ccc(OCCO)cc3)c[nH]c2C1 [Compound 30, N-[4-(2-Hydroxyethoxy)phenyl]-4-oxo-6,6-dimethyl-4,5,6,7-tetrahydro-1H-indole-3-carboxamide] | 268 to 270 °C
15 | CCCN(CCC)CCNC(=O)COc1ccc(NC(=O)c2c[nH]c3c2C(=O)CCC3)cc1 [Compound 228, N-[2-(dipropylamino)ethyl]-2-{4-[(4-oxo-(4,5,6,7-tetrahydroindol-3-yl))carbonylamino]phenoxy}acetamide] | 148 to 150 °C
16 | CC(C)CNCCOc1ccc(NC(=O)c2c[nH]c3c2C(=O)CCC3)c(F)c1 [Compound 76, N-[2-Fluoro-4-(2-Isobutylaminoethoxy)phenyl]-4-oxo-4,5,6,7-tetrahydro-1H-indole-3-carboxamide] | 152 to 155 °C
17 | CC(C)(C)NCCOc1ccncc1NC(=O)c1c[nH]c2c1C(=O)CCC2 [Compound 112, N-[4-(2-t-Butylaminoethoxy)pyrid-3-yl]-4-oxo-4,5,6,7-tetrahydro-1H-indole-3-carboxamide] | 274 to 278 °C
18 | CCCCNCCOc1ccc(NC(=O)c2c[nH]c3c2C(=O)CCC3)cc1.Cl | 187 to 190 °C
19 | O=C(Nc1ccc(CCN2CCCC2)cc1)c1c[nH]c2c1C(=O)CCC2 [Compound 59, N-[4-(2-Pyrrolidin-1-ylethyl)phenyl]-4-oxo-4,5,6,7-tetrahydro-1H-indole-3-carboxamide] | 184 to 186 °C
20 | CC1CC(=O)c2c(C(=O)Nc3ccc4c(c3)OC(C)(C)O4)c[nH]c2C1 (stereo not drawn) [Compound 40, N-(2,2-Dimethyl-1,3-benzodioxol-5-yl)-4-oxo-6-methyl-4,5,6,7-tetrahydro-1H-indole-3-carboxamide] | 155 to 157 °C
21 | O=C(Nc1ccc(OCCn2ccnc2)cc1)c1c[nH]c2c1C(=O)CCC2 [Compound 91, N-[4-(2-Imidaz-1-ylethoxy)phenyl]-4-oxo-4,5,6,7-tetrahydro-1H-indole-3-carboxamide] | 226 to 230 °C
22 | CNCc1ccc(NC(=O)c2c[nH]c3c2C(=O)CC(C)(C)C3)cc1 [Compound 32, N-[4-(Methylaminomethyl)phenyl]-4-oxo-6,6-dimethyl-4,5,6,7-tetrahydro-1H-indole-3-carboxamide] | 230 to 232 °C
23 | Cl.O=C(Nc1cnccc1OCc1ccncc1)c1c[nH]c2c1C(=O)CCC2 | 293 °C

Row | Structure (SMILES) | melting point
24 | CC1CC(=O)c2c(C(=O)Nc3ccc4c(c3)OCO4)c[nH]c2C1 (stereo not drawn) [Compound 41, N-(1,3-Benzodioxol-5-yl)-4-oxo-6-methyl-4,5,6,7-tetrahydro-1H-indole-3-carboxamide] | 297 to 299 °C
25 | CCN(CC)CCN(CC)C(=O)COc1ccc(NC(=O)c2c[nH]c3c2C(=O)CCC3)cc1 | 165 to 167 °C
26 | CN(C)CCOc1ccc(NC(=O)c2c[nH]c3c2C(=O)CCC3)cc1 [Compound 88, N-[4-(2-Dimethylaminoethoxy)phenyl]-4-oxo-4,5,6,7-tetrahydro-1H-indole-3-carboxamide] | 201 °C
27 | Cl.O=C(Nc1cnccc1OCc1cccnc1)c1c[nH]c2c1C(=O)CCC2 | 276 to 277 °C
28 | CC1(C)CC(=O)c2c(C(=O)Nc3ccc4c(c3)OCOC4)c[nH]c2C1 [Compound 45, N-(4H-1,3-Benzodioxin-7-yl)-4-oxo-6,6-dimethyl-4,5,6,7-tetrahydro-1H-indole-3-carboxamide] | 234 to 236 °C
29 | CC1CC(=O)c2c(C(=O)Nc3ccc4c(c3)OCCO4)c[nH]c2C1 (stereo not drawn) [Compound 42, N-(2,3-Dihydro-1,4-benzodioxin-6-yl)-4-oxo-6-methyl-4,5,6,7-tetrahydro-1H-indole-3-carboxamide] | 290 to 292 °C
30 | O=C(Nc1ccc(OC[C@@H]2CCCN2)cc1)c1c[nH]c2c1C(=O)CCC2 [Compound 85, N-{4-[(S)-Pyrrolidin-2-ylmethoxy]phenyl}-4-oxo-4,5,6,7-tetrahydro-1H-indole-3-carboxamide] | 165 to 167 °C
31 | CN(C)CCOc1ccc(NC(=O)c2c[nH]c3c2C(=O)CCC3)cc1F [Compound 89, N-[3-Fluoro-4-(2-dimethylaminoethoxy)phenyl]-4-oxo-4,5,6,7-tetrahydro-1H-indole-3-carboxamide] | 203 °C
32 | CCCNCCOc1ccncc1NC(=O)c1c[nH]c2c1C(=O)CCC2.Cl | 177 to 178 °C
33 | CN1CCC(COc2ccncc2NC(=O)c2c[nH]c3c2C(=O)CCC3)C1 (stereo not drawn) [Compound 131, N-{4-[(1-Methyl-pyrrolidin-3-yl)methoxy]pyrid-3-yl}-4-oxo-4,5,6,7-tetrahydro-1H-indole-3-carboxamide] | 209 to 211 °C
34 | O=C(Nc1ccc2c(c1)NCCO2)c1c[nH]c2c1C(=O)CCC2 [Compound 33, N-(3,4-Dihydro-2H-1,4-benzoxazin-6-yl)-4-oxo-4,5,6,7-tetrahydro-1H-indole-3-carboxamide] | 216 °C
35 | CC(C)CNCCOc1ccc(NC(=O)c2c[nH]c3c2C(=O)CCC3)cc1F [Compound 77, N-[3-Fluoro-4-(2-Isobutylaminoethoxy)phenyl]-4-oxo-4,5,6,7-tetrahydro-1H-indole-3-carboxamide] | 147 to 149 °C
36 | O=C(Nc1cccc(OCCCNC23CC4CC(CC(C4)C2)C3)c1)c1c[nH]c2c1C(=O)CCCC2 [Compound 183, N-[3-(3-Adamant-1-ylaminopropoxy)phenyl]4-oxo-1,4,5,6,7,8-hexahydro-cyclohepta[b]pyrrole-3-carboxamide] | 175 to 176 °C
37 | CCNCCOc1ccncc1NC(=O)c1c[nH]c2c1C(=O)CCC2.Cl | 178 to 180 °C
38 | Cl.O=C(Nc1cnccc1OCCN1CCCC1)c1c[nH]c2c1C(=O)CCCC2 | 160 to 162 °C
39 | O=C(Nc1cnccc1OCCN1CCCC1)c1c[nH]c2c1C(=O)CCC2 [Compound 124, N-[4-(2-Pyrrolidin-1-ylethoxy)pyrid-3-yl]-4-oxo-4,5,6,7-tetrahydro-1H-indole-3-carboxamide] | 148 to 150 °C
40 | CCNCCOc1ccc(NC(=O)c2c[nH]c3c2C(=O)CCCC3)cc1.Cl | 227 to 228 °C
41 | CC(C)NCCOc1ccc(NC(=O)c2c[nH]c3c2C(=O)CCC3)cc1 [Compound 69, N-[4-(2-Isopropylaminoethoxy)phenyl]-4-oxo-4,5,6,7-tetrahydro-1H-indole-3-carboxamide] | 284 to 286 °C
42 | O=C(Nc1ccc(OCCNC2C3CC4CC(C3)CC2C4)cc1)c1c[nH]c2c1C(=O)CCC2 (stereo not drawn) [Compound 83, N-[4-(2-adamant-2-ylaminoethoxy)phenyl]-4-oxo-4,5,6,7-tetrahydro-1H-indole-3-carboxamide] | 144 to 149 °C
43 | O=C(Nc1ccc(OCC(=O)N2CCOCC2)c(F)c1)c1c[nH]c2c1C(=O)CCC2 [Compound 232, N-[3-fluoro-4-(2-morpholin-4-yl-2-oxoethoxy)phenyl](4-oxo-(4,5,6,7-tetrahydroindol-3-yl))carboxamide] | 110 °C
44 | CC1(C)CCc2[nH]cc(C(=O)Nc3ccc4c(c3)OCOC4)c2C1=O [Compound 38, N-(4H-1,3-Benzodioxin-7-yl)-4-oxo-5,5-dimethyl-4,5,6,7-tetrahydro-1H-indole-3-carboxamide] | 251 to 252 °C
45 | CCNCc1ccc(NC(=O)c2c[nH]c3c2C(=O)CCC3)cc1 [Compound 21, N-[4-(Ethylaminomethyl)phenyl]-4-oxo-4,5,6,7-tetrahydro-1H-indole-3-carboxamide] | 194 to 195 °C
